Here are results for 4 compounds from patent US20090264342A1, “COMPOSITIONS AND METHODS FOR ANTIBIOTIC POTENTIATION AND DRUG DISCOVERY” (priority 2006, published 2009).

For one experiment, the system named is E. coli MG1655. Briefly: Hydroxyl radical formation (HPF dye, flow cytometry) in E. coli. The format is cell-based. How it is done:
(§1) Growth Conditions. In the experiments, the growth and survival of untreated exponential phase E. coli, or S. aureus, were compared to cultured treated with antibiotics at the above concentrations. E. coli cultures were treated with norfloxacin, kanamycin, ampicillin, rifamycin SV, chloramphenical, tetracycline, erythromycin, or spectinomycin, where appropriate, S. aureus cultures were treated with norfloxacin, vancomycin or chloramphenical, where appropriate.
Hydroxyl radical and DNA damage sensor experiments using the flow cytometer. To monitor the occurrence of DNA damage, the engineered DNA damage sensor was used, which responds to auto-cleavage of LexA by activating expression of gfpmut3b. All the drug treatments and the no-drug controls were collected with both the kanamycin- and ampicillin-resistant version of the plasmid, with the exception of the ampicillin treatment (kanamycin plasmid only) and the kanamycin treatment (ampicillin plasmid only). All data were collected using a Becton Dickinson FACSCalibur flow cytometer (Becton Dickinson, San Jose, Calif.) with a 488-nm argon laser and a 515- to 545-nm emission filter (FL1) at low flow rate. The following PMT voltage settings were used: E00 (FSC), 360 (SSC) and 700 (FL1). To detect hydroxyl radical formation, the fluorescent reporter dye, 3′-(p-hydroxyphenyl) fluorescein (HPF, Invitrogen, Carlsbad, Calif.) was used at a concentration of 5 μM (1:1000) dilution), which is oxidized by hydroxyl radicals with high specificity. The following PMT voltage settings were used: E00 (FSC), 360 (SSC) and 825 (FL 1). Calibrite beads (Becton Dickinson) were used for instrument calibration.
Flow data were processed and analyzed with MATLAB (MathWorks, Natick, Mass.) to construct figures. At least 50,000 cells were collected for each sample. In all experiments, cells were grown as described above. Samples were taken immediately before addition of drug (time zero), then every hour for 3 hours. At each timepoint, approximately […] were collected, washed once and resuspended in filtered 1×PBS, pH 7.2 (Fisher Scientific), and fluorescence was measured on the flow cytometer.
In the present study, the Applicants chose to investigate whether hydroxyl radical formation also contributes to antibiotic-induced cell death in bacteria. Using the dye hydroxyphenyl fluorescein, HPF, which is oxidized by hydroxyl radicals with high specificity, hydroxyl radical formation was first observed over a range of hydrogen peroxide concentrations known to induce hydroxyl radicals through the reduction of hydrogen peroxide by ferrous iron. In this manner, it was possible to establish the scale of hydroxyl radical formation detectable using this dye via flow cytometry.

In a further experiment the test system is wild-type E. coli. It is filed as cell-based. Conditions: norfloxacin, ampicillin or kanamycin treatment plus 2,2′-dipyridyl (500 μM). How it is done:
FIG. 36 is a set of 3 graphs showing the effect of iron chelation, hydroxyl radical quenching of iron-sulfur synthesis on the […] efficiency of bactericidal antibiotics. a,c,e, Log change in colony forming units per mL (CFU/mL, mean+/−standard deviation). Effect of addition of 500 μM 2,2′-dipyridyl or 150 mM thiourea to wildtype E. coli, and on an iron-sulfur cluster synthesis mutant, ΔiscS, on bactericidal drug efficacy and hydroxyl radical formation following exposure to a, 250 ng/mL norfloxacin (Nor), c, 5 μg/mL ampicillin (Amp), or e, 5 μg/mL kanamycin (Kan).
as §1
Application of iron chelators is an established means of blocking Fenton reaction-mediated hydroxyl radical formation by sequestering unbound iron. […]

A further experiment relates to Streptomyces pneumoniae. Conditions: more active than ciprofloxacin against this pathogen; cited from earlier work.
The next experiment deals with T1, E. Coli RecA protein (Escherichia coli, UniProt P0A7G6).
T1 construct: purchased New England Biolabs
T1 sequence (P0A7G6 2-353): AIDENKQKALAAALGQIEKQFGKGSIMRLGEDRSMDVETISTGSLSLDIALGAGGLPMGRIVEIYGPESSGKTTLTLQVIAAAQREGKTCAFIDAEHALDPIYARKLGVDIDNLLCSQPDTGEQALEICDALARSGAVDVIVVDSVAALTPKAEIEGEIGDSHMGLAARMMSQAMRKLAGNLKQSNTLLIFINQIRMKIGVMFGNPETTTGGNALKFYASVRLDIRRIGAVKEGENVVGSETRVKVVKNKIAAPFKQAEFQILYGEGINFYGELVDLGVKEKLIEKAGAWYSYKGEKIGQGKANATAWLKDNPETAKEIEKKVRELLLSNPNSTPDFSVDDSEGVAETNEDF
Briefly: RecA ATPase activity, in vitro luciferase assay. It is filed as biochemical. Conditions: luciferase assay screen. How it is done: The assay measures the amount of ATPase (adenosine triphosphate (ATP)-adenosine diphosphate (ADP)) activity catalyzed by E. Coli RecA protein. In the assay, recA is incubated in reaction buffer with DNA, ATP and compounds of interest for a measured amount of time. The quantity of ATP remaining after the RecA reaction is quantitated using a subsequent luciferase assay. […] Details of the assay are provided below.
Materials. Kingase glo plus, adenosine triphosphate (ATP), Adenosine 5′-O-(3-thiotriphosphate), and 384 well plates, white were obtained from Fisher; and M13 mp18 Single-stranded DNA, RecA Protein and T4 Polynucleotide Kinase Reaction Buffer=PNK were obtained from New England Biolabs. PNK contained 70 mM Tris-CL pH 7.5, 10 mM MgCl2 and 5 mM DTT.
Assay Procedure. Final reaction mixture contains: 0.5 μL of M13 single stranded DNA (250 μg/mL); 1.0 μL of 10×PHK buffer; 0.25 μL of RecA (2 mg/mL); 0.25 μL of 1 mM ATP; 0.25 μL of test compound in DMSO; and […] of H2O.
Test compounds are incubated at room temperature in the presence of RecA protein and DNA prior to addition of ATP. This can be achieved by the preparation of two mixes, as indicated below. Desirably, both a no-DNA and a DNA/DMSO-only (i.e., no test compound) control were included.
The following steps are then performed: (1) Add 7.75 μL of mix 1 to the well of a 384 well plate; (2) Add 0.5 μL of the compound of interest; (3) Incubate at room temperature for 5 minutes; (4) Add 2.5 μL of the ATP mix. Incubate at room temperature for 30 minutes; (5) Add 12.5 μL of Promega Kinase glo plus; (6) Incubate at room temperature for 10 minutes or more; and (7) Measure luminescence of the reaction.
Tested compounds were obtained from Boston University (1205 compounds from CMLD diversity library, available from Dr. Scott Schauss), IndoFine (66 compounds based on flavone structure), ChemdiV (48 compounds known to be ATPase inhibitors and 720 compounds structurally related to CB101 (described, for example, in U.S. Ser. No. 60/662,038), and Asinex. Five (5) tested compounds were bisfiavones and 28 were predicted, based on structural modeling (see, for example, Example 31) to dock with Rec A. Many of the compounds are lipophilic, natural-product-like compounds. Others are flavones, bisflavones, flavonoids, coumarins, and/or heterocyclic compounds.
Percent inhibition is calculated according to the following equation: […]

The subject of experiment [1] is S. aureus strain S3 (ISP 794). Briefly: Survival assay, potentiation of ciprofloxacin, S. aureus strain S3. It is filed as cell-based. The settings on record: 1 μg/mL ciprofloxacin + 25 μg/mL hinokiflavone, 16 hour time point. The source says: Cell-based Survival Assay.
The next experiment relates to S. aureus cells. Briefly: Mutation/resistance assay, resistance to ciprofloxacin. The format is cell-based. The settings on record: 4×MIC ciprofloxacin with (+) or without (−) 25 μg/mL hinokiflavone. How it is done:
This assay measures the rate at which mutant cells arise in the presence of an antibiotic agent. Cells are grown in the presence of antibiotic agent at a concentration above (generally well above, e.g., 4× or 8×) its MIC, and further in the presence or absence of a test agent (that may inhibit or enhance mutation).
Every 24 hours, an aliquot is removed from the culture and is diluted so that the antibiotic agent is no longer present at a concentration above its MIC (e.g., so that the antibiotic agent is present at 0.5×MIC or less). These aliquoted samples are then assayed to determine whether they can grow in the presence of the antibiotic agent. Specifically, when growth is observed in the presence of antibiotic agent at a concentration that is 4×MIC, then resistance is said to have developed. Test compounds can therefore be assayed to assess whether or not they can reduce the incidence of resistance (e.g., by inhibiting mutation).
These aliquoted samples were then assayed to determine whether they can grow in the presence of ciprofloxacin. […]

The test system of another experiment is wildtype E. coli. The experiment in a line: NAD+/NADH extraction and NAD cycling assay. The format is cell-based. Conditions: bacteriostatic drug. An excerpt:
NAD+/NADH extraction and NAD cycling assay. Protocols for dinucleotide extraction and the cycling assay were based on protocols by Leonardo et al. (M. R. Leonardo et al., J. Bacteriol., 1996, 178: 6013-6018).
Using a modified version (M. R. Leonardo et al., J. Bacteriol., 1996, 178: 6013-6018;) of the NAD^+ cycling assay developed by Bernofsky and Swan (C. Bernofsky et al., Anal. Biochem., 1973, 53: 452-458), the present Applicants monitored NAD^+ and NADH concentrations in wildtype E. coli following treatment with the bactericidal drugs norfloxacin, ampicillin and kanamycin, as well as the bacteriostatic drug spectinomycin. For all three bactericidal drugs, a >5 fold increase in the NAD^+/NADH ratio was observed 0.5 hours after drug addition. This ratio returned to untreated levels by 1 hour. The increase in the NAD^+/NADH ratio was predominantly due to a large relative drop in NADH accompanied by a modest surge in NAD^+. This spike was not observed in an untreated culture, where the ratio of NAD^+/NADH remained tightly bounded. More importantly, treatment with the bacteriostatic drug spectinomycin had no effect on the NAD^+/NADH ratio relative to the untreated culture. A surge in NADH consumption upon exposure to bactericidal antibiotics should induce a burst in superoxide generation via the respiratory chain. […]

For the compound `c1ccc(-c2ccccn2)nc1` [2,2′-dipyridyl], the “hydroxyl radical formation in norfloxacin-treated cultures” value with E. coli MG1655 (addition of 2,2′-dipyridyl (500 μM)) is given as “significantly reduced hydroxyl radical formation”. Moreover, in the experiment with wild-type E. coli, the “survival of bactericidal drug-treated E. coli following addition of iron chelator” value is “significant increase in survival”.

Regarding `CO/N=C1\CN(c2nc3c(cc2F)c(=O)c(C(=O)O)cn3C2CC2)CC1CN` (stereo not shown) [Gemifloxacin], in the experiment with Streptomyces pneumoniae, the “activity relative to ciprofloxacin” value is recorded as 30 fold.

For the compound `O=c1cc(-c2ccc(Oc3c(O)cc4oc(-c5ccc(O)cc5)cc(=O)c4c3O)cc2)oc2cc(O)cc(O)c12` [hinokiflavone], the IC50 at E. Coli RecA protein is less than 1860 nM. In addition, the “fewer CFUs in the presence of hinokiflavone as compared with its absence” value in experiment [1] is listed as “approximately 100 fold”. Further, the “Number of Wells in which Growth Observed in Presence of Ciprofloxacin at 4x MIC” value was 0 in the experiment with S. aureus cells (culture grown 0 days); 0 in the experiment on S. aureus cells (culture grown 1 day); 0 in the experiment with S. aureus cells (culture grown 5 days); 0 in the experiment with S. aureus cells (culture grown 6 days); 3 in the experiment with S. aureus cells (culture grown 7 days); 4 in the experiment on S. aureus cells (culture grown 10 days).

Consider `CN[C@@H]1[C@H](O)[C@H](NC)[C@H]2O[C@@]3(O)C(=O)C[C@@H](C)O[C@H]3O[C@@H]2[C@H]1O` [spectinomycin], for which the hydroxyl radical formation entry in the experiment on E. coli MG1655 (E. coli, 250 ng/mL norfloxacin, 5 μg/mL ampicillin, 5 μg/mL kanamycin, bacteriostatic drugs, 3 hours after addition) is recorded as “did not stimulate hydroxyl radical production”. In addition, the “effect on the NAD+/NADH ratio relative to the untreated culture” value in the experiment with wildtype E. coli is recorded as “no effect”.
